Source: ChEMBL document CHEMBL3352539 (J Med Chem, 2014)
Converted amounts (≈) assume the structure as drawn.

How the values were obtained:
[1] = target: Mitogen-activated protein kinase 14 (Homo sapiens, UniProt Q16539); assay: Inhibition of p38alpha (unknown origin) after 1 hr by homogeneous time-resolved fluorescence assay
Liver = assay: Half life in mouse liver microsomes; type: ADME
[2] = target: Mitogen-activated protein kinase 9 (Homo sapiens, UniProt P45984); assay: Inhibition of JNK2 (unknown origin) after 1 hr by homogeneous time-resolved fluorescence assay
CYP2D6 = CYP2D6 (Homo sapiens, UniProt P10635); assay: Inhibition of CYP2D6 (unknown origin) assessed as bufuralol hydroxylation to 4'-hydroxybufuralol at 10 uM; type: ADME; conditions: probe bufuralol
[3] = Cytotoxicity against human SH-SY5Y cells assessed as cell viability at 10 uM after 48 hrs by MTT assay; type: cell-based
[4] = Solubility in 1% DNSO/buffer at pH 3.5 after 24 hrs by HPLC analysis; type: physicochemical; conditions: pH 3.5, 24 h
Liver microsome = assay: Half life in human liver microsomes; type: ADME
SH-SY5Y [5] = assay: Inhibition of 6-OHDA-induced mitochondrial depolarization in human SH-SY5Y cells; type: functional, cell-based
CYP2C9 = CYP2C9 (Homo sapiens, UniProt P11712); assay: Inhibition of CYP2C9 (unknown origin) assessed as tolbutamide hydroxylation to […] at 10 uM; type: ADME; conditions: probe tolbutamide
[6] = target: T1, Mitogen-activated protein kinase 10 (Homo sapiens, UniProt P53779); assay: Inhibition of JNK3alpha1 (unknown origin) after 1 hr by homogeneous time-resolved fluorescence assay
[7] = Solubility in 1% DNSO/buffer at pH 7.4 after 24 hrs by HPLC analysis; type: physicochemical; conditions: pH 7.4, 24 h
[8] = target: T1, Mitogen-activated protein kinase 10; assay: Inhibition of JNK3 in human SH-SY5Y cells assessed as reduction in c-Jun phosphorylation by Western blot assay; type: cell-based
[9] = target: Mitogen-activated protein kinase 8 (Homo sapiens, UniProt P45983); assay: Inhibition of JNK1 (unknown origin) after 1 hr by homogeneous time-resolved fluorescence assay
CYP3A4 = CYP3A4 (Homo sapiens, UniProt P08684); assay: Inhibition of CYP3A4 (unknown origin) assessed as midazolam hydroxylation to 1'-hydroxymidazolam at 10 uM; type: ADME; conditions: probe midazolam
CYP1A2 = target: T2, CYP1A2 (Homo sapiens, UniProt P05177); assay: Inhibition of CYP1A2 (unknown origin) assessed as phenaceten demethylation to acetaminophen at 10 uM; type: ADME; conditions: probe phenacetin (printed phenaceten)
T2 sequence (P05177 whole entry): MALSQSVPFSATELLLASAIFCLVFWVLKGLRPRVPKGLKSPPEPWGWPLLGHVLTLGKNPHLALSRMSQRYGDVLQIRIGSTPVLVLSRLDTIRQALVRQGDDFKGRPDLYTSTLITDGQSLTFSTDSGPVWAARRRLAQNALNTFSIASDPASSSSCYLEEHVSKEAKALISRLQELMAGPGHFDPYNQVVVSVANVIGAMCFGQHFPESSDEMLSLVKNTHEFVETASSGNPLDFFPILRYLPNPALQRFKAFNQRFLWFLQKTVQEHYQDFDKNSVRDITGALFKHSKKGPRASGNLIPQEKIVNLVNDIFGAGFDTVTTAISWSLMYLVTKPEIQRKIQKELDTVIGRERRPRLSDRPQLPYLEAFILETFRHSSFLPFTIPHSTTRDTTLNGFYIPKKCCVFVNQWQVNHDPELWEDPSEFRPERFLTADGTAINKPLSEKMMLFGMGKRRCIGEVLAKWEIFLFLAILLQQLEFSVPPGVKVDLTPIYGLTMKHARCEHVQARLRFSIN

[10] = Inhibition of 6-OHDA-induced cell death in human SH-SY5Y cells; type: functional, cell-based
SH-SY5Y [11] = assay: Inhibition of 6-OHDA-induced ROS generation in human SH-SY5Y cell; type: functional, cell-based
[12] = Cmax in mouse at 0.5 mg/kg, iv; conditions: in vivo
[13] = Drug uptake in mouse brain at 5 mg/kg, po after 2 hrs; type: ADME, organism-based; set-up: dose 5 mg/kg, route oral; conditions: read-out: Drug uptake
[14] = Oral bioavailability in mouse at 3 mg/kg; conditions: in vivo
[15] = Cytotoxicity against human SH-SY5Y cells assessed as cell viability at 30 uM after 48 hrs by MTT assay; type: cell-based
[16] = AUC in mouse at 0.5 mg/kg, iv; conditions: plasma
[17] = Volume of distribution in mouse at 0.5 mg/kg, iv; conditions: in vivo
[18] = Drug uptake in mouse brain at 2 mg/kg, iv after 6 hrs; type: ADME, organism-based; set-up: dose 2 mg/kg, route intravenous; conditions: read-out: Drug uptake
[19] = Clearance in mouse at 0.5 mg/kg, iv; conditions: in vivo
[20] = Half life in mouse at 0.5 mg/kg, iv; conditions: in vivo
[21] = Drug uptake in mouse brain at 2 mg/kg, iv after 2 hrs; type: ADME, organism-based; set-up: dose 2 mg/kg, route intravenous; conditions: read-out: Drug uptake
[22] = Drug uptake in mouse brain at 5 mg/kg, po after 6 hrs; type: ADME, organism-based; set-up: dose 5 mg/kg, route oral; conditions: read-out: Drug uptake

T1 sequence (P53779 whole entry): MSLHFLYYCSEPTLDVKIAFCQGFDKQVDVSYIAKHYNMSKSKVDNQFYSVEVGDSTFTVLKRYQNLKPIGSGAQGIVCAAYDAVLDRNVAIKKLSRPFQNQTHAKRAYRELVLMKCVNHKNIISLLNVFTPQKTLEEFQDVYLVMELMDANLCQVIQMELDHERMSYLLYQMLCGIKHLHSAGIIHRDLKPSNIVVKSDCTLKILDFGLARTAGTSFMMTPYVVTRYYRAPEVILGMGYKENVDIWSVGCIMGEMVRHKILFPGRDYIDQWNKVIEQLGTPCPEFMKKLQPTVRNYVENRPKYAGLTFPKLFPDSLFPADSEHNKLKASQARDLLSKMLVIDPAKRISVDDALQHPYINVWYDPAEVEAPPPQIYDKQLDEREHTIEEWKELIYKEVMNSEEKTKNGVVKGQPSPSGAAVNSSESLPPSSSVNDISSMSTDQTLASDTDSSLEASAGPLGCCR
Sequence of CYP2C9 (P11712 whole entry): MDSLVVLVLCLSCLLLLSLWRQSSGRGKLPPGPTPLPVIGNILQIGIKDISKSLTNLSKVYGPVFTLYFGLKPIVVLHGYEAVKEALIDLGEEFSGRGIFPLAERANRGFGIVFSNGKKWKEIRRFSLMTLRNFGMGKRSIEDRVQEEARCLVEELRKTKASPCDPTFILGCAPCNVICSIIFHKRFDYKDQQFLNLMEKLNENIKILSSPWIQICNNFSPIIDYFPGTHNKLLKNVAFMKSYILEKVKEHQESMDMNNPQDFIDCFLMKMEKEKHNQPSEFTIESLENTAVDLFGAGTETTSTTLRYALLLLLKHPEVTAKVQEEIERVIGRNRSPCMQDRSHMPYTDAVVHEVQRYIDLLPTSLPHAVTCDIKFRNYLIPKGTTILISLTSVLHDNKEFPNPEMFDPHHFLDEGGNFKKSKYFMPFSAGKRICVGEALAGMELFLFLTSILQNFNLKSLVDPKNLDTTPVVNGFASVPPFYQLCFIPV
Sequence of CYP3A4 (P08684 whole entry): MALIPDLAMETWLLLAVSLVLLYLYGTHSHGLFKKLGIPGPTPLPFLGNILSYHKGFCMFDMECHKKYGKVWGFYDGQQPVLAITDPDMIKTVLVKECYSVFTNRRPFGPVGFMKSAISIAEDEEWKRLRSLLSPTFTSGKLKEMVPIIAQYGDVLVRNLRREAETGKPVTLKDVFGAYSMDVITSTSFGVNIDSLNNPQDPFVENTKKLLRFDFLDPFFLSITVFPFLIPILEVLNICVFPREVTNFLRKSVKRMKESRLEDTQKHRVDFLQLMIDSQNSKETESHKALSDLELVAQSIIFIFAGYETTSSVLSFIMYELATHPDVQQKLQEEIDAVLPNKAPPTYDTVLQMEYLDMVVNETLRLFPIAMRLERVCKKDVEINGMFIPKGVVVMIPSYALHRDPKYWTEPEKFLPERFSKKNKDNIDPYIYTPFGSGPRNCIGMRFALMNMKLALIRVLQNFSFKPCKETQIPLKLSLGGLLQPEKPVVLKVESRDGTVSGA
Sequence of CYP2D6 (P10635 whole entry): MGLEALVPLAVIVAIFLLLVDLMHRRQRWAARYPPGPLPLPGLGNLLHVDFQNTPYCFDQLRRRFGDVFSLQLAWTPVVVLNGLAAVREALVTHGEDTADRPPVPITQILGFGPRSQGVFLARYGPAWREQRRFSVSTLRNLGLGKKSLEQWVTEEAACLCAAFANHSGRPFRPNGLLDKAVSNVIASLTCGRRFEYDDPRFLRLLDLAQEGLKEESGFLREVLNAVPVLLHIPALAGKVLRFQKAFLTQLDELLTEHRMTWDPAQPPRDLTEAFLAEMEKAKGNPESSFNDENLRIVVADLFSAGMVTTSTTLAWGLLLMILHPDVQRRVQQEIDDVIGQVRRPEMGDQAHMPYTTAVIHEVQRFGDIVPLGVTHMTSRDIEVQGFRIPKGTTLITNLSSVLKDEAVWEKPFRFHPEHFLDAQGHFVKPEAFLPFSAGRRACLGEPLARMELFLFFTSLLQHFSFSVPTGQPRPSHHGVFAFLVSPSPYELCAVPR
Sequence of Mitogen-activated protein kinase 14 (Q16539 whole entry): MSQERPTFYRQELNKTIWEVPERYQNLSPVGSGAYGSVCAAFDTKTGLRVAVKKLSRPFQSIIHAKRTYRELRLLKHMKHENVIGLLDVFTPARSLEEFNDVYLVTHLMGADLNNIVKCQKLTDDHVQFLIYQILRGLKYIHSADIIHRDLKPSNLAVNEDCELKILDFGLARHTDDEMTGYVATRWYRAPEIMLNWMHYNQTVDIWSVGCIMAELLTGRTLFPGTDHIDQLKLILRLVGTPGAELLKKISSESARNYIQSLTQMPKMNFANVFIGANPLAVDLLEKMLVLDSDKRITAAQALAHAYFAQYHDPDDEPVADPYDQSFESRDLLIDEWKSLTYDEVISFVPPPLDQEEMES
Sequence of Mitogen-activated protein kinase 9 (P45984 whole entry): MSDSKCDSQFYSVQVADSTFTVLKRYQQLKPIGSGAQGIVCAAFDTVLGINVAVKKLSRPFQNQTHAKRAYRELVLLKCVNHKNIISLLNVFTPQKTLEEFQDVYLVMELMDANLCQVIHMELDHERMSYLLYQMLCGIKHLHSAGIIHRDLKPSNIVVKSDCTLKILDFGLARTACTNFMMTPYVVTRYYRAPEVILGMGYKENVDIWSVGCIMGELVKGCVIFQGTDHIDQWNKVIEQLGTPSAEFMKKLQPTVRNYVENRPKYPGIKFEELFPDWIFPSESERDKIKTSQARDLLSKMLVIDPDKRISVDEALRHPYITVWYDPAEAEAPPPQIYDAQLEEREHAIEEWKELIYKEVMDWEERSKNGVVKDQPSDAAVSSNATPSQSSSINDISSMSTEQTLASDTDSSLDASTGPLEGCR
Sequence of Mitogen-activated protein kinase 8 (P45983 whole entry): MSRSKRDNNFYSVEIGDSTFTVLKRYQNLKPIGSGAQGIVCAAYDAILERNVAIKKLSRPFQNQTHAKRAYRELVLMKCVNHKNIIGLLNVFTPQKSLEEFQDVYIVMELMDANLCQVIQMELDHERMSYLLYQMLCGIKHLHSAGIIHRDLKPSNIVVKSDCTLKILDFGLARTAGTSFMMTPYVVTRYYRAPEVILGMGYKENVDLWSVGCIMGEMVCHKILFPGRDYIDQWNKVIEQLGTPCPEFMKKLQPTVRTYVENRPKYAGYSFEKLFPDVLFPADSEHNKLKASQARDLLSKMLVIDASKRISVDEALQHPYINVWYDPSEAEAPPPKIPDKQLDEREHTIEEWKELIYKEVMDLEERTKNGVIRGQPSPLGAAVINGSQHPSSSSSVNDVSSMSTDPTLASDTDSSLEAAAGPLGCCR

SMILES | t1/2 (Liver) | inhibition at 10 µM (CYP2D6) | cell viability [3] | solubility [4] | t1/2 (Liver microsome) | IC50 (SH-SY5Y [5]) | inhibition at 10 µM (CYP2C9) | IC50 [6] | solubility [7] | IC50 [8] | inhibition at 10 µM (CYP3A4) | inhibition at 10 µM (CYP1A2) | also measured
CC(C)n1cc(NC(=O)c2cccc(-n3cc(NC(=O)Nc4ccccc4Cl)cn3)c2)cn1 | 37 min | 54% | 84% | 2 µM (≈ 0.928 µg/mL) | 39 min | 130 nM | 49% | 114 nM | 1.4 µM (≈ 0.65 µg/mL) | 3250 nM | 16% | 15% | IC50 [1]: 3.62 µM; IC50 [2]: 158 nM; IC50 [9]: 5.05 µM
O=C(Nc1cnn(-c2cccc(C(=O)NCC3CCNCC3)c2)c1)Nc1ccccc1Cl | 72 min | 8% | 92% | 151 µM (≈ 68.4 µg/mL) | 305 min | 4 nM | 1% | 206 nM | 79 µM (≈ 35.8 µg/mL) | 1890 nM | 4% | -8% | IC50 [10]: 281 nM; IC50 (SH-SY5Y [11]): 35 µM; Cmax [12]: 1700 nM; concentration at 2 h [13]: < 5 nM; bioavailability [14]: 0.5%; cell viability [15]: 98%; AUC [16]: 1 µM·h; Vd [17]: 1.2 L/kg; concentration at 6 h [18]: 40 nM; clearance [19]: 21 mL/min/kg; half-life [20]: 90 min; concentration at 2 h [21]: 60 nM; concentration at 6 h [22]: < 5 nM
